This test deals with whole blood. The test can be described thus: Transcriptional profiling on Affymetrix GeneChips, single dose, naïve mice: whole blood. The format is in vivo, C57BL/6 mice. The note with it: for Number of differentially expressed genes identified: Whole blood: Naïve, Single Dose. The procedure:
Treated mice were sacrificed at 2, 7, or 12 hours. Tissues (liver, spleen, kidney, jejunum, cortex, hippocampus, striatum and whole blood) were collected and analyzed by transcriptional profiling on mouse Affymetrix GeneChips. […] While the experiments were performed in mice, the human homolog of the identified murine gene transcript is included in the tables. Additional genes that were identified in the study are provided in APPENDIX A, filed herewith on even date, the contents of which are herein incorporated by reference in their entirety. Additional studies are described in the Examples, and genes identified in the studies are provided in […], and APPENDIX E filed herewith on even date, the contents of each of which are herein incorporated by reference in their entirety. […] Tissues (liver, spleen, kidney, jejunum, cortex, hippocampus, striatum and whole blood) were collected and analyzed by transcriptional profiling on mouse Affymetrix GeneChips. […] Animals were exposed to CO2 and whole blood collected via cardiac puncture. Two 100 μl aliquots of whole blood were collected in 1.5 mL microcentrifuge tubes and snap frozen in liquid nitrogen. Peripheral (liver, spleen, kidney and jejunum) and CNS brain (cerebellum, hippocampus, striatum and cortex) tissues were harvested and snap frozen in liquid nitrogen, with special care taken to collect tissues of similar size and from the same location. All samples were stored at -80° C. until RNA extraction was conducted. 50 ul of snap frozen mouse blood was re-suspended in lysis buffer with proteinase K and arrayed into deep-well plates for automated RNA extraction. RNA extractions were completed on […] (Beckman Coulter, Indianapolis, Ind.) using Agencourt RNAdvance Blood kit (Part number A35604) according to the manufacturer's specifications. RNA integrity was assessed using the HT RNA reagent kit (Part number 760410, Caliper Life Sciences, Hopkinton, Mass.) using a LabChip GX (PerkinElmer, Waltham, Mass.). RNA samples with a RQS score of >8.0 were considered high quality for downstream microarray processing. […] Two micrograms of biotin labeled […] probe were hybridized to Affymetrix GeneChip Affymetrix HT_MG-430_PM plate arrays with modified conditions as described in […] et al. Washing and staining of the hybridized arrays were completed as described in the GeneChip Expression analysis technical manual for HT plate arrays using the Genechip® Array Station (Affymetrix, Santa Clara, Calif.) with modifications as described in […] et al. The processed GeneChip® plate arrays were scanned using GeneTitan scanner (Affymetrix, Santa Clara, Calif.). Affymetrix scans were subject to quality control (QC) measures. These tests included a visual inspection of the distribution of raw signal intensities and an assessment of RNA degradation, relative log expression (RLE), and normalized unsealed standard error (NUSE). All sample scans that passed these QC metrics were included in the analysis. All CEL files were subjected to GC-content-based Robust Multi-array Average (GCRMA) normalization (version 2.20.0) (Irizarry R A, et al. Nucleic Acids Res 2003; 31:e15; Li C, et al. Genome Biol 2001; 2:[…]0032). […] Stat Appl Genet Mol Biol 2004; 3:Article3). […] Springer Science+Business Media 2005).

[1] abbreviates: 100 mpk, vs Vehicle, 2 h after last dosing.
The mark [2] stands for this setting: 100 mpk, vs Vehicle, 7 h after last dosing.
Setting [3] is: 100 mpk, vs Vehicle, 12 h after last dosing.
[4] abbreviates: whole blood, 100DMF-vs-Veh, 2 h.
Setting [5] is: whole blood, 100DMF-vs-Veh, 12 h.
The mark [6] stands for this setting: whole blood, 100MMF-vs-Veh, 12 h.

Each structure is given as a SMILES string. Where a name gives a salt, the structure may show the parent alone.

As to `COC(=O)/C=C/C(=O)OC` [DMF, dimethyl fumarate], the “Number of genes, DMF Only / MMF Only” value (Blood) worked out at 6. The “Cpsf2 (1420937_PM_at) differential expression” value (Blood, 2 hr) is listed as −1.65. Where the note is “Blood, 12 hr”, the “Gzma (1417898_PM_a_at) differential expression” value is recorded as 1.92, the “Klrb1b (1445399_PM_at) differential expression” value was found to be 1.65, the “Klrc1 (1425005_PM_at) differential expression” value was determined as 1.85 and the “Klre1 (1458642_PM_at) differential expression” value is 1.85. In addition, the “Ncr1 (1422089_PM_at) differential expression” value (Blood, 12 hr) stood at 1.86. Besides, where the note is “100 mpk DMF-vs-100 mpk MMF, 2 h after last dosing”, the “Number of differentially expressed genes identified: Whole blood” value (“Number of differentially” for short) is 0. Also, the “Number of differentially” value (100 mpk DMF-vs-100 mpk MMF, 7 h after last dosing) came to 1. For the same compound, for the setting “100 mpk DMF-vs-100 mpk MMF, 12 h after last dosing”, the “Number of differentially” value was determined as 0. Also, under setting [1], the “Number of differentially” value was 2. Further, the “Number of differentially” value under setting [2] turned out to be 0. Moreover, under setting [3], the “Number of differentially” value was found to be 5. In addition, under “whole blood, 100DMF-vs-100MMF, 2 h”, the differentially expressed genes entry is listed as “None”. Under “whole blood, 100DMF-vs-100MMF, 7 h”, the “FC Lman1 (1444037_PM_at)” value is recorded as 1.63. For the same compound, where the note is “whole blood, 100DMF-vs-100MMF, 12 h”, the differentially expressed genes result is “None”. For the same compound, under setting [4], the “FC Cpsf2 (1420937_PM_at)” value is on record as −1.65 and the “FC probe 1441373_PM_at” value is −1.70. Under setting [5], the “FC Gzma (1417898_PM_a_at)” value is 1.92, the “FC Klrb1b (1445399_PM_at)” value is listed as 1.65, the “FC Klrc1 (1425005_PM_at)” value came out at 1.85 and the “FC Klre1 (1458642_PM_at)” value is 1.85. For the same compound, the “FC Ncr1 (1422089_PM_at)” value under setting [5] is 1.86. The differentially expressed genes result (whole blood, 100DMF-vs-Veh, 7 h) is recorded as “None”.
In the case of `COC(=O)/C=C/C(=O)O` [MMF, monomethyl fumarate], under “Blood”, the “Number of genes, DMF Only / MMF Only” value is 2. In addition, for the setting “Blood, 2 hr”, the “Bcl3 (1418133_PM_at) differential expression” value is recorded as −1.23. Moreover, the “Sdc1 (1415943_PM_at) differential expression” value (Blood, 12 hr) is recorded as −1.96. Besides, the “Number of differentially” value came to 1 under setting [1], 0 under setting [2] and 2 under setting [3]. Also, the “FC Bcl3 (1418133_PM_at)” value (whole blood, 100MMF-vs-Veh, 2 h) is −1.67. The “FC 0710007G10Rik /// Tmem175 (1435109_PM_at)” value under setting [6] was −1.52. Under setting [6], the “FC Sdc1 (1415943_PM_at)” value is −1.96. The “Bcl3 mRNA fold change vs vehicle” value (whole blood, 2 hr after single 100 mg/kg oral dose) is −1.23. Besides, for the setting “whole blood, 12 hr after single 100 mg/kg oral dose”, the “Sdc1 mRNA fold change vs vehicle” value is recorded as −1.96.
